How the values were obtained:
[1] = target: T1, Hepatocyte growth factor receptor (Homo sapiens, UniProt P08581); assay: Inhibition of human GST-tagged c-MET preincubated for 20 mins followed by [33P]-ATP addition measured after 2 hrs by Hot-SpotSM kinase assay
[2] = tested on: MKN-45; assay: Cytotoxicity against human MKN45 cells assessed as decrease in cell viability after 72 hrs by Cell Titer-Glo assay; format: functional
[3] = tested on: PC-3; assay: Cytotoxicity against human PC3 cells assessed as decrease in cell viability after 72 hrs by Cell Titer-Glo assay; format: functional
[4] = tested on: EBC-1; assay: Cytotoxicity against human EBC1 cells assessed as decrease in cell viability at 25 uM after 72 hrs by Cell Titer-Glo assay relative to control; format: functional
[5] = tested on: EBC-1; assay: Cytotoxicity against human EBC1 cells assessed as decrease in cell viability after 72 hrs by Cell Titer-Glo assay; format: functional
[6] = target: T1, Hepatocyte growth factor receptor; assay: Inhibition of human GST-tagged c-MET at 3 uM preincubated for 20 mins followed by [33P]-ATP addition measured after 2 hrs by Hot-SpotSM kinase assay
[7] = target: Epidermal growth factor receptor (Homo sapiens) (UniProt P00533); assay: Inhibition of human GST-tagged EGFR at 3 uM preincubated for 20 mins followed by [33P]-ATP addition measured after 2 hrs by Hot-SpotSM kinase assay
[8] = target: Receptor-type tyrosine-protein kinase FLT3 (Homo sapiens) (UniProt P36888); assay: Inhibition of human GST-tagged FLT3 at 3 uM preincubated for 20 mins followed by [33P]-ATP addition measured after 2 hrs by Hot-SpotSM kinase assay
[9] = target: Vascular endothelial growth factor receptor 2 (Homo sapiens) (UniProt P35968); assay: Inhibition of human GST-tagged VEGFR2 at 3 uM preincubated for 20 mins followed by [33P]-ATP addition measured after 2 hrs by Hot-SpotSM kinase assay
[10] = target: Platelet-derived growth factor receptor alpha (Homo sapiens) (UniProt P16234); assay: Inhibition of human GST-tagged PDGFRalpha at 3 uM preincubated for 20 mins followed by [33P]-ATP addition measured after 2 hrs by Hot-SpotSM kinase assay
[11] = target: Proto-oncogene tyrosine-protein kinase receptor Ret (Homo sapiens) (UniProt P07949); assay: Inhibition of human GST-tagged RET at 3 uM preincubated for 20 mins followed by [33P]-ATP addition measured after 2 hrs by Hot-SpotSM kinase assay
[12] = target: Macrophage-stimulating protein receptor (Homo sapiens) (UniProt Q04912); assay: Inhibition of human GST-tagged RON at 3 uM preincubated for 20 mins followed by [33P]-ATP addition measured after 2 hrs by Hot-SpotSM kinase assay
[13] = target: ALK tyrosine kinase receptor (Homo sapiens) (UniProt Q9UM73); assay: Inhibition of human GST-tagged ALK at 3 uM preincubated for 20 mins followed by [33P]-ATP addition measured after 2 hrs by Hot-SpotSM kinase assay
[14] = tested on: Hepatocyte growth factor receptor (Homo sapiens), P08581 [Y1230C]; assay: Inhibition of human GST-tagged c-MET Y1230C mutant at 3 uM preincubated for 20 mins followed by [33P]-ATP addition measured after 2 hrs by Hot-SpotSM kinase assay
[15] = tested on: Hepatocyte growth factor receptor (Homo sapiens), P08581 [Y1230H]; assay: Inhibition of human GST-tagged c-MET Y1230H mutant at 3 uM preincubated for 20 mins followed by [33P]-ATP addition measured after 2 hrs by Hot-SpotSM kinase assay
[16] = target: T2, Receptor-type tyrosine-protein kinase FLT3 (Homo sapiens, UniProt P36888); assay: Inhibition of human GST-tagged FLT3 preincubated for 20 mins followed by [33P]-ATP addition measured after 2 hrs by Hot-SpotSM kinase assay
T2 sequence (P36888 whole entry): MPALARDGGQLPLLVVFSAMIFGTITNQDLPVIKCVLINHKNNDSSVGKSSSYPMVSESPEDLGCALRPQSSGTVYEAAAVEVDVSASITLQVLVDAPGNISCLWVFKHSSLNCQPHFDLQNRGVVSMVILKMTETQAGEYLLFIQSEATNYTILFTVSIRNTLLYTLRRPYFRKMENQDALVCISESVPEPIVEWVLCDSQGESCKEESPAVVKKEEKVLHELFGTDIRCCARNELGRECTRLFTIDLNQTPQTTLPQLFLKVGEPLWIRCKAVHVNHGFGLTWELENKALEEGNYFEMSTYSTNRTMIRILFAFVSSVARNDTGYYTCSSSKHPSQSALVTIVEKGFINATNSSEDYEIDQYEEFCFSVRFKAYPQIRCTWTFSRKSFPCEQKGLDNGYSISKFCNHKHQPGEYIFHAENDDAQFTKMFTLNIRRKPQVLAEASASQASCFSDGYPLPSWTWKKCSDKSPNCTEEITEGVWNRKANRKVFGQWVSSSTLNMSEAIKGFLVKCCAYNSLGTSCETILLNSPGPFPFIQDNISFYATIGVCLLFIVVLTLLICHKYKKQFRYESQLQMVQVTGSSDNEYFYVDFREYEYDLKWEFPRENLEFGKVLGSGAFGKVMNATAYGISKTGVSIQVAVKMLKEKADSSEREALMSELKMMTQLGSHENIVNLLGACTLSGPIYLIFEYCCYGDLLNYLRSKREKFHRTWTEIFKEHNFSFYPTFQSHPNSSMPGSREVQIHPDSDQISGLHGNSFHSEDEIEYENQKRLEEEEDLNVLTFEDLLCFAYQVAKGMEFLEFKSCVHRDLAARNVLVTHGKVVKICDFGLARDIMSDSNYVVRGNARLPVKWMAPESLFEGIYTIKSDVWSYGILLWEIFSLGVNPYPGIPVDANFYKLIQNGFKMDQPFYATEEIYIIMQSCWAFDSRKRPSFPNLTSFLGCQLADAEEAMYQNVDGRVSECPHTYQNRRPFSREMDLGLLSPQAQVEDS

[17] = target: T1, Hepatocyte growth factor receptor; assay: Inhibition of HGF-induced c-MET phosphorylation at Tyr1234/1235 in human MKN45 cells after 1 hr by Western blot analysis; format: cell-based
[18] = tested on: PC-3; assay: Cytotoxicity against human PC3 cells assessed as decrease in cell viability at 25 uM after 72 hrs by Cell Titer-Glo assay relative to control; format: functional
[19] = tested on: HFL1; assay: Cytotoxicity against human HFL1 cells assessed as decrease in cell viability at 50 uM after 72 hrs by Cell Titer-Glo assay; format: cell-based; conditions: hfl1, 72 h

T1 sequence (P08581 whole entry): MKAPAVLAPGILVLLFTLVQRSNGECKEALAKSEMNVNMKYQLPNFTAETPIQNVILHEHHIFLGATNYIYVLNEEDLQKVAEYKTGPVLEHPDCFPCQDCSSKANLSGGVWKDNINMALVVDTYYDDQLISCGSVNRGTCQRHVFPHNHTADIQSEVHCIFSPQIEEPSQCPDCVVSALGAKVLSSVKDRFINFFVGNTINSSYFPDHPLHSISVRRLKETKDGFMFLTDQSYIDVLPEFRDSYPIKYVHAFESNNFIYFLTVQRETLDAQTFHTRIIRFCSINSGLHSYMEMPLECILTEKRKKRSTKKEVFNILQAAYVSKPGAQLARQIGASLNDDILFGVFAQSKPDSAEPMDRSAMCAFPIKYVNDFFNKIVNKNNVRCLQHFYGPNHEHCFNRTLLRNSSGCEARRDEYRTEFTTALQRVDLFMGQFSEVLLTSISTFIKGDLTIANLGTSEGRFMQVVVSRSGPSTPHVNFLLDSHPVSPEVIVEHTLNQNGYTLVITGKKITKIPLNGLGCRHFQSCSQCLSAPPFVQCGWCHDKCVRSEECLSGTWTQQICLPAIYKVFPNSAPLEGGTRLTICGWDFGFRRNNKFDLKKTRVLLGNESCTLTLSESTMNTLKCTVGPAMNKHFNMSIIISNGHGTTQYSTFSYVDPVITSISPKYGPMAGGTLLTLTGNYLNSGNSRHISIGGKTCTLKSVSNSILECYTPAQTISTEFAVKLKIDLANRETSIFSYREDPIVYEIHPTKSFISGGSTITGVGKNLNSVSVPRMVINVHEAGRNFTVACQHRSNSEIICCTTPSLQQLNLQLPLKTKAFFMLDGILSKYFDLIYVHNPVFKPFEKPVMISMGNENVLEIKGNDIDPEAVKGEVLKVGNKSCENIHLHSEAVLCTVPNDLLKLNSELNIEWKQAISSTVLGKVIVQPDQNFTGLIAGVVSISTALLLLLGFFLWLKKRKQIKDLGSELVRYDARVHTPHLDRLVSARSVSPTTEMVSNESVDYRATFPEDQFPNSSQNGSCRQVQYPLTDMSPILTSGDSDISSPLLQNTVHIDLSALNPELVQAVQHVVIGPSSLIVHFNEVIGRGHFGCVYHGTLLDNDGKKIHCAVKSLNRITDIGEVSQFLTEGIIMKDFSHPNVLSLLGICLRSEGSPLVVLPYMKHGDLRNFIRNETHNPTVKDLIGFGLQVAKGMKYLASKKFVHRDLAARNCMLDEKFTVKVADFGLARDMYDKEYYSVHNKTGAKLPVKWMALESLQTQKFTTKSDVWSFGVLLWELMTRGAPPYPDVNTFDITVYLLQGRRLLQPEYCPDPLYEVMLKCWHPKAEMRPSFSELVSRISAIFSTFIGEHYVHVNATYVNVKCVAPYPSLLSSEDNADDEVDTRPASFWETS
Proto-oncogene tyrosine-protein kinase receptor Ret (Homo sapiens), sequence (P07949 whole entry): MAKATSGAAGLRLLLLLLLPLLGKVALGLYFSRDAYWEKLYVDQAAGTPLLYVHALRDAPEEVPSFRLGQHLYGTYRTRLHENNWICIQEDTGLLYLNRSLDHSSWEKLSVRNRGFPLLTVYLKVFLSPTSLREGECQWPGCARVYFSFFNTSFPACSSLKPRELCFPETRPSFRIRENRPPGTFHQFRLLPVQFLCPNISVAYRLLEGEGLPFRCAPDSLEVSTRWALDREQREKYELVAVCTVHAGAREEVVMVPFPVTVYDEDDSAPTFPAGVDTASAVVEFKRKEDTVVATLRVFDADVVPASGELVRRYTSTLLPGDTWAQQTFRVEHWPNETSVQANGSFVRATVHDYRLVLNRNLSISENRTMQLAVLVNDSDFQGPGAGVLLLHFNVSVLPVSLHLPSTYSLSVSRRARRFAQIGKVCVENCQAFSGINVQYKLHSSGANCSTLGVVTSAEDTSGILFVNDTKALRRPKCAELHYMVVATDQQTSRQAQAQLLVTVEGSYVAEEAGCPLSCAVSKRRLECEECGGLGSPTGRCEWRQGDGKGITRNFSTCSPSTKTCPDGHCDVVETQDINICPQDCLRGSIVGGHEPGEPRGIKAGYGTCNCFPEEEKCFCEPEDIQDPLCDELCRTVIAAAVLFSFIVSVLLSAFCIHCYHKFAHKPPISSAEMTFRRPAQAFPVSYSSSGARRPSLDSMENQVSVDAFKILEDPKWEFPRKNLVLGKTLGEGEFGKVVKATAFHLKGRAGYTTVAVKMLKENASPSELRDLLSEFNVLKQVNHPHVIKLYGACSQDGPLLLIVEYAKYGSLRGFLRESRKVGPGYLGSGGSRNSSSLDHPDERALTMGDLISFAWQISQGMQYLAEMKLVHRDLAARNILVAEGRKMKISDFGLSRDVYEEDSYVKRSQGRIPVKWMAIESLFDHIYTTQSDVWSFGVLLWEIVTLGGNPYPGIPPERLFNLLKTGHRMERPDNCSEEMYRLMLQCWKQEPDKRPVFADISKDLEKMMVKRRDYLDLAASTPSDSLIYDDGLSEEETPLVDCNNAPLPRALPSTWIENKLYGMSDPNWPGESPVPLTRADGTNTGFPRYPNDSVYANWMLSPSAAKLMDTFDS
Hepatocyte growth factor receptor (Homo sapiens), P08581 [Y1230H], sequence (P08581 whole entry Y1230H): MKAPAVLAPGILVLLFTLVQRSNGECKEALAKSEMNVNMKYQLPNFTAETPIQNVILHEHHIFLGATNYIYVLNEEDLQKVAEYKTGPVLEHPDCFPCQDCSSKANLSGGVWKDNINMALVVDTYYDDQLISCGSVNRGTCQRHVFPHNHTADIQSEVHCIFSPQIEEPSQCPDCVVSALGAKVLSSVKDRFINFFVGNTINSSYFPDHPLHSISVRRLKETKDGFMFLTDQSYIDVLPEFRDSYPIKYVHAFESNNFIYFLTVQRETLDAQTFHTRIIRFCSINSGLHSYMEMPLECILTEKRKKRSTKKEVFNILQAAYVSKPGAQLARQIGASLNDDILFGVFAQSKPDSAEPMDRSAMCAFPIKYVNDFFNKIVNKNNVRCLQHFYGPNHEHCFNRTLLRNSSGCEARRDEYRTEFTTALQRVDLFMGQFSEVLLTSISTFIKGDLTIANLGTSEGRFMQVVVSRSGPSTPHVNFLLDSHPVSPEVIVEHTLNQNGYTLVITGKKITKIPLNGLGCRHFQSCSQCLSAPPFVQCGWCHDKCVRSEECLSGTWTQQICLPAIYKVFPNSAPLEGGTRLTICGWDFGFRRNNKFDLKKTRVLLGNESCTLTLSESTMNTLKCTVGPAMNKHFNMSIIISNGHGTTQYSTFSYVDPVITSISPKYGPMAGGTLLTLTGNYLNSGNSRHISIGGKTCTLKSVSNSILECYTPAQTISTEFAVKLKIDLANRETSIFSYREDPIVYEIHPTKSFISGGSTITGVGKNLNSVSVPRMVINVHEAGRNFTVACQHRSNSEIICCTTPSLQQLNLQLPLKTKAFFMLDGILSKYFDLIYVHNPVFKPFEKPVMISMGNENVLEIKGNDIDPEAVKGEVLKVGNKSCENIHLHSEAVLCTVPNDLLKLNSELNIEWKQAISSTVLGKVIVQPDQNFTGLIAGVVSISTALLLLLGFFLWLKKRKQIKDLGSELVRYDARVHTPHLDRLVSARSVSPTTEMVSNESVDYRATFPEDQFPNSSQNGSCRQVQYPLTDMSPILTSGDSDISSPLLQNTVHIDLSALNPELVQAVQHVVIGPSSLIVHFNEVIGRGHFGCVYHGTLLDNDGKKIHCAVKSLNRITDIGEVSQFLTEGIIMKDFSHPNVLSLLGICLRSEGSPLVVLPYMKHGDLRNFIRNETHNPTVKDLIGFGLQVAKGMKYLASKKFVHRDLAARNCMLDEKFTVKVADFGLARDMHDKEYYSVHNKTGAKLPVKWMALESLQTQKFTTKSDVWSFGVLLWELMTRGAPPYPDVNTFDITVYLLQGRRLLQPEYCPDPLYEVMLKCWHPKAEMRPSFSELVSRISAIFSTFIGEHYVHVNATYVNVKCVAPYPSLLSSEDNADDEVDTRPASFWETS
Epidermal growth factor receptor (Homo sapiens), sequence (P00533 whole entry): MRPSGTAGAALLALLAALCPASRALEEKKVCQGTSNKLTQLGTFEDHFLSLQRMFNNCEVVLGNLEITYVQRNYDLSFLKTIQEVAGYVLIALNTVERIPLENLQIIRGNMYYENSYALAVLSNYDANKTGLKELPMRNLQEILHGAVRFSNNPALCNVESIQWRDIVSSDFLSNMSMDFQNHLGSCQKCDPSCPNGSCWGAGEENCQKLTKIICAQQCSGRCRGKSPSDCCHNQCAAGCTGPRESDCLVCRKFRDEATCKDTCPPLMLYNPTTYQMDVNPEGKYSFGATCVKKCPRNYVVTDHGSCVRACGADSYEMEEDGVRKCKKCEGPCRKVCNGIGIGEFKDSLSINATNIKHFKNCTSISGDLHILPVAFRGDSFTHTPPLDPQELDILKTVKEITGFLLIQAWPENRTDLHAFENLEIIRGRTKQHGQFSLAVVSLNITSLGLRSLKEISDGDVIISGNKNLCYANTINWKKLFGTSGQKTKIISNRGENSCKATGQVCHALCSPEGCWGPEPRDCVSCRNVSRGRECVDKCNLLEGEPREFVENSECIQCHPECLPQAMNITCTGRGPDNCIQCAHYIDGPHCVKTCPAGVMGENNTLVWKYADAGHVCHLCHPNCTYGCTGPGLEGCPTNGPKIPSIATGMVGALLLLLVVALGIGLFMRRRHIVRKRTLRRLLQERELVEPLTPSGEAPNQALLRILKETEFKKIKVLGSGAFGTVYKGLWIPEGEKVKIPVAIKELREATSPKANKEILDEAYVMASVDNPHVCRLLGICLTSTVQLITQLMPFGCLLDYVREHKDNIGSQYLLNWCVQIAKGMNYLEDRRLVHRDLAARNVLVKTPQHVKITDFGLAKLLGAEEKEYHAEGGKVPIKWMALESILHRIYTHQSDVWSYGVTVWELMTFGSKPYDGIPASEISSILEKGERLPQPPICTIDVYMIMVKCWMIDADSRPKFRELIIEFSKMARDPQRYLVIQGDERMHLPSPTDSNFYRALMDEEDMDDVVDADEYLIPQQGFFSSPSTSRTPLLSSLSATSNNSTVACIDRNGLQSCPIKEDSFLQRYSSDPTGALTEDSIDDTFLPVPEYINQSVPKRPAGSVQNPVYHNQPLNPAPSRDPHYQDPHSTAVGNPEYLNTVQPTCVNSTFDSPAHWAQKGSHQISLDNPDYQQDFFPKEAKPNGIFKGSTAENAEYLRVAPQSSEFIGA

Compound | IC50 [1] [nM] | Activity [2] [µM] | Activity [3] [µM] | Activity [5] [µM] | further results
CC(=O)N1CCC(Nc2ccc(-c3n[nH]c4c3CN(S(=O)(=O)c3cccc5cccnc35)CC4)cc2)CC1 | > 50000 |  |  |  | 
CC(=O)N1CCC(Nc2ccc(-c3n[nH]c4c3CN(S(=O)(=O)c3cccs3)CC4)cc2)CC1 |  | >25 | >25 |  | Activity [4]: 57.52%
CC(=O)N1CCC(Nc2ccc(-c3n[nH]c4c3CN(S(=O)(=O)c3c(Cl)cccc3Cl)CC4)cc2)CC1 |  | 12.02 | >25 | 11.478 | 
CC(=O)N1CCC(Nc2ccc(-c3n[nH]c4c3CN(S(=O)(=O)c3ccc(C)cc3)CC4)cc2)CC1 | > 50000 |  |  |  | 
CN1CCN(C(=O)c2ccc(-c3n[nH]c4c3CN(S(=O)(=O)c3c(Cl)cccc3Cl)CC4)cc2)CC1 |  | 12.057 |  | 8.278 | 
O=C(NCCO)c1ccc(-c2n[nH]c3c2CN(S(=O)(=O)c2c(Cl)cccc2Cl)CC3)cc1 |  | >25 | >25 | >25 | 
CN1CCC(Nc2ccc(-c3n[nH]c4c3CN(S(=O)(=O)c3c(Cl)cccc3Cl)CC4)cc2)CC1 | 68 | 1.187 |  | 3.481 | inhibition [6]: 17.6%; inhibition [7]: -5.68%; inhibition [8]: 97.8%; inhibition [9]: 26.9%; inhibition [10]: 41.1%; inhibition [11]: 33.5%; inhibition [12]: 27.4%; inhibition [13]: 55.6%; inhibition [14]: 14.9%; inhibition [15]: 7.16%; IC50 [16]: 124 nM; inhibition [17]: Dose-dependent effect; Activity [18]: 60.89%; Activity [19]: 40.6%
CC(=O)N1CCC(Nc2ccc(-c3n[nH]c4c3CN(S(=O)(=O)c3cccc5ccccc35)CC4)cc2)CC1 | > 50000 |  |  |  | 
C[C@@H](Oc1cc(-c2cnn(C3CCNCC3)c2)cnc1N)c1c(Cl)ccc(F)c1Cl [CRIZOTINIB] |  | 0.022 | 2.244 | 0.013 | Activity [19]: 39.4%

From ChEMBL document CHEMBL4130362, “Structure-based design, synthesis, and evaluation of 4,5,6,7-tetrahydro-1H-pyrazolo[4,3-c]pyridine derivatives as novel c-Met inhibitors” (Eur J Med Chem, 2017)
